Earlier results, collected in patent US20240216299A1, “TRANSMUCOSAL THERAPEUTIC SYSTEM CONTAINING AGOMELATINE” (LTS LOHMANN Therapie-Systeme AG, priority 2019, published 2024).

[1] = patients with moderate hepatic impairment compared to healthy subjects

In the case of `COc1ccc2cccc(CCNC(C)=O)c2c1` [agomelatine, N-(2-(7-Methoxy-1-naphthyl)ethyl)acetamide], the oral absorption (oral) is given as over 80%, the overall bioavailability (oral) is given as “less than 5%” and the “increase in AUC” value [1] is given as “up to 140 fold”. For the same compound, the “increase in Cmax” value [1] was “up to 140 fold”.
